Laboratory results reported in US20240374535A1, “COMPOSITIONS AND METHODS FOR TREATING BIOFILM DISORDERS AND INFECTIONS” (AHV International B.V., priority 2021, published 2024).
Read-outs that look alike come from different tables or passages of the source.

Columns and labels:
[1] = system: Staphylococcus epidermis ATCC 35984; test: MIC assay (planktonic growth inhibition, OD600); type: cell-based, S. epidermidis; conditions: for IC50: read-out: S. epidermidis MIC50; for IC90: read-out: S. epidermidis MIC90
Protocol: (§1) The exact weighed amount was noted and the volume of solvent to reach a 80 mM dilution calculated. Half of the volume was added first, by adding Tween 80. In a second step, the other half of the volume DMSO was added and the closed tube inverted 5-10 times and then vortexed very thoroughly for at least 30 seconds. If after this procedure unsolved material was still visible, the tube was placed in a shaker at 37° C. at 150 rpm for at least 30 minutes. […] For the MBEC assay (method 1.3) the solution needs to be diluted to a final concentration of 2 mM in 0.9% saline solution and then further diluted to 1 mM, 0.5 mM, 0.25 mM and 0.125 mM in saline. Those dilutions were added as treatment to the 96 well plates with the grown biofilm (see method 3).
(§2) Frozen aliquots of Staphylococcus epidermis ATCC 35984 and Pseudomonas aeruginosa ATCC 27853 were used to inoculate a tryptic soy agar (TSA) plate and incubated overnight at 37° C. After incubation 3-5 well-isolated colonies with the same morphology were selected from the TSA plate and resuspended in 2 mL 0.9% saline solution with 3-6 glass beads and vortexed. The optical density at 600 nm (OD600) of the bacterial suspension was measured with a spectrophotometer (Evolution™ 201/220 UV-Visible Spectrophotometer, Thermo Fisher Scientific) and diluted to an OD600 of 0.0008, which resembles 10^6 CFU/mL.
(§3) The MIC assay was performed in a flat-bottom 96-microtiter plate. 50 μL of MHB-II was added into columns 2-11, and 100 μL to column 12 for sterility control. 100 μL of the 8 mM test compound solution (method 1) was added to column 1. A two-fold dilution series of the solution in MHB-II was achieved by resuspending 50 μL of the 8 mM solution from column 1 to column 2. This step was repeated until column 10. The respective concentration of Tween 80 and DMSO in column 1 was 2.5%, which is two-fold diluted throughout the plate. 50 μL of the bacterial suspension was added to column 1-11. The microtiter plates were sealed with adhesive polyethylene film for sealing microplates (Diversified Biotech) and incubated for 24 h at 37° C. After incubation the OD was measured at 600 nm with the Varioskan (Thermo Fisher Scientific). […] This assay was repeated three times in three independent experiments.

[2] = system: Pseudomonas aeruginosa ATCC 27853; test: MIC assay (planktonic growth inhibition, OD600); type: cell-based, P. aeruginosa; conditions: for IC50 / IC90: Pseudomonas aeruginosa; for IC50: read-out: P. aeruginosa MIC50; for IC90: read-out: P. aeruginosa MIC90
Protocol: as §1, §2, §3

[3] = system: Staphylococcus epidermis ATCC 35984 biofilm; test: MBEC assay (biofilm eradication, CFU log reduction); type: cell-based, S. epidermidis; conditions: for minimal effective concentration: read-out: S. epidermidis MBEC mM with log reduction ≥1
Protocol: as §1
(§4) Frozen aliquots of Staphylococcus epidermis ATCC 35984 and Pseudomonas aeruginosa ATCC 27853 were used to inoculate 20 mL of Tryptic Soy Broth (TSB) in a 100 mL Erlenmeyer flask at 37° C. and 150 rpm and incubated overnight (Infors). The OD600 of the overnight culture was measured with a spectrophotometer (Evolution™ 201/220 UV-Visible Spectrophotometer, Thermo Fisher Scientific) and diluted to an OD600 of 0.2, which resembles 10^8 CFU/mL. The cell suspension of OD600=0.2 was seeded into a U-bottom-shaped 96 well plates by pipetting 100 μL per well in column 1-11, column 12 was filled with 100 μL medium as sterility control. The 96 well plates were sealed with adhesive polyethylene film for sealing microplates and incubated for 48 h at 37° C. at static conditions. After the biofilm growth phase, 100 μL of treatment solutions (method 1) were added to the vials resulting in treatment concentrations of 1 mM, 0.5 mM, 0.25 mM and 0.125 mM and with the respective concentration of Tween 80 and DMSO each at 0.63%, 0.32%, 0.16% and 0.08%. The same concentration was applied to four different wells of the same bacterial strain, resulting in four replicates for each concentration and strain. The treatment was incubated for 20 h at 37° C. at static conditions. After the treatment the supernatant was carefully removed and the well with the biofilm washed carefully for one time with 200 μL 0.9% saline solution. 200 μL saline solution was added and the biofilm was resuspended thoroughly. When fully homogenized then 20 μL was used for the first dilution in 180 μL 0.9% saline solution, which was prepared in a second plate. This dilution was continued until dilution step 10E−5 and 100 μL of the 10E−4 and 10E−5 dilution plated on a TSA plate. The TSA plates were incubated at 37° C. for 24 h. The colonies on the plates were enumerated, the colony forming units per mL of the dispensed biofilm and averages thereof and the log reduction in comparison with the untreated sample from the same wells plate calculated. Reduction of colony forming units goes hand in hand with the thickness of the biofilm and thus with the number bacteria that are present in the biofilm. Therefore, a significant reduction of colony forming units in the biofilm was defined at the value of log reduction ≥1 or more. This assay was repeated two times in two independent experiments)

[4] = system: Pseudomonas aeruginosa ATCC 27853 biofilm; test: as above; type: cell-based, P. aeruginosa; conditions: for minimal effective concentration: Pseudomonas aeruginosa, read-out: P. aeruginosa MBEC mM with log reduction ≥1
Protocol: as §1, §4

udder cleft wound = test: In vivo udder cleft dermatitis test: wound assessment after spray treatment; set-up: species or system cow; conditions: for Conclusion (effect on udder cleft wound): over 60 days, all cows of the group
Protocol: An example of a biofilm-related disorder is Udder Cleft Dermatitis (UCD), which relates to a chronic wound. In this Example, di-alkyl thiosulfonates, dialkyl thiosulfinates and di-alkyl disulfides were tested for their effect on cows affected by UCD.
Experiments were performed to examine the effect of various sprays containing water (control), a test compound, or a reference compound (CTC spray, which contains chlorotetracycline hydrochloride, and was obtained from Dechra veterinary products).
0.35 mL of the spray was sprayed on an udder cleft wound per treatment. Treatments took place once a day at t=0, at t=3 days and t=6 days. In Table 6, the assessment qualifications that are used in Table 7, are explained.

[5] = minimal concentration reducing final OD600 by 50%, 24 h at 37° C.
[6] = minimal concentration reducing final OD600 by 90%, 24 h at 37° C.
[7] = ATCC27853, minimal concentration reducing final OD600 by 50%, 24 h at 37° C.
[8] = ATCC27853, minimal concentration reducing final OD600 by 90%, 24 h at 37° C.
[9] = 48 h grown biofilm, 20 h treatment, CFU log reduction vs untreated
[10] = ATCC27853, 48 h grown biofilm, 20 h treatment, CFU log reduction vs untreated

Row | Molecule | IC50 [1, 5] [mM] | IC90 [1, 6] [mM] | IC50 [2, 7] [mM] | IC90 [2, 8] [mM] | minimal effective concentration [3, 9] [mM] | minimal effective concentration [4, 10] [mM] | S. epidermidis MIC50 [1, 5] [µM] | S. epidermidis MIC90 [1, 6] [µM] | P. aeruginosa MIC50 [2, 5] [µM] | P. aeruginosa MIC90 [2, 6] [µM] | S. epidermidis MBEC mM with log reduction ≥1 [3, 9] [mM] | P. aeruginosa MBEC mM with log reduction ≥1 [4, 9] [mM] | also measured
1 | Fc1ccc(SSc2ccc(F)cc2)cc1 [Bis (4-fluorophenyl) disulfide] | 0.06 | 0.06 | 0.125 | 0.25 | > 1 | > 1 | – | – | – | – | – | – | Conclusion (effect on udder cleft wound) (udder cleft wound): No effect
2 | COc1ccc(SSc2ccc(OC)cc2)cc1 [Bis (4-methoxyphenyl) disulfide, Bis(4-methoxyphenyl) disulfide] | > 4 | > 4 | > 4 | > 4 | > 1 | > 1 | – | – | – | – | – | – | Conclusion (effect on udder cleft wound) (udder cleft wound): No effect
3 | c1ccc(CSSCc2ccccc2)cc1 [Di-benzyl disulfide] | – | – | – | – | – | – | – | – | – | – | – | – | IC50 ([1]; 24 h): > 4 mM; IC90 ([1]; 24 h): > 4 mM; IC50 ([2]; ATCC27853, 24 h): > 4 mM; IC90 ([2]; ATCC27853, 24 h): > 4 mM; minimal effective concentration ([3]; 20 h): > 1 mM; minimal effective concentration ([4]; ATCC27853, 20 h): > 1 mM; Conclusion (effect on udder cleft wound) (udder cleft wound): No effect
4 | O=S(=O)(Cc1ccccc1)SCc1ccccc1 [Di-benzyl thiosulfonate] | – | – | – | – | – | – | 2000 | 4000 | 4000 | >4000 | 0.125 | 0.125 | –
5 | CCSSCC [Di-ethyl disulfide] | – | – | – | – | – | – | – | – | – | – | – | – | IC50 ([1]; 24 h): > 4 mM; IC90 ([1]; 24 h): > 4 mM; IC50 ([2]; ATCC27853, 24 h): > 4 mM; IC90 ([2]; ATCC27853, 24 h): > 4 mM; minimal effective concentration ([3]; 20 h): > 1 mM; minimal effective concentration ([4]; ATCC27853, 20 h): > 1 mM
6 | CCS[S+]([O-])CC (stereo not drawn) [Di-ethyl thiosulfinate, S-ethyl ethanesulfinothioate] | – | – | – | – | – | – | – | – | – | – | – | – | Conclusion (effect on udder cleft wound) (udder cleft wound): No effect
7 | c1coc(CSSCc2ccco2)c1 [Di-furfuryl disulfide] | 2 | > 4 | 2 | > 4 | > 1 | > 1 | – | – | – | – | – | – | –
8 | CSSC [Di-methyl disulfide] | – | – | – | – | – | – | – | – | – | – | – | – | IC50 ([1]; 24 h): > 4 mM; IC90 ([1]; 24 h): > 4 mM; IC50 ([2]; ATCC27853, 24 h): > 4 mM; IC90 ([2]; ATCC27853, 24 h): > 4 mM; minimal effective concentration ([3]; 20 h): > 1 mM; minimal effective concentration ([4]; ATCC27853, 20 h): > 1 mM
9 | CCCCS[S+]([O-])CCCC (stereo not drawn) [Di-n-butyl thiosulfinate, S-butyl butane-1-sulfinothioate] | – | – | – | – | – | – | – | – | – | – | – | – | inflammation of the udder cleft wound after treatment (udder cleft wound; immediately after the treatment, later infection reduced and wound healed): fast inflammation reduction; Conclusion (effect on udder cleft wound) (udder cleft wound): Positive effect
10 | CCCCCCCCCCSSCCCCCCCCCC [Di-n-decyl disulfide] | > 4 | > 4 | > 4 | > 4 | > 1 | > 1 | – | – | – | – | – | – | –
11 | CCCCCCSSCCCCCC [Di-n-hexyl disulfide] | > 4 | > 4 | > 4 | > 4 | > 1 | > 1 | – | – | – | – | – | – | –
12 | CCCSSC [Methyl propyl disulfide] | > 4 | > 4 | > 4 | > 4 | > 1 | > 1 | – | – | – | – | – | – | –
13 | CCCCCCCCCCS[S+]([O-])CCCCCCCCCC (stereo not drawn) [S-decyl-1-decane thiosulfinate] | – | – | – | – | – | – | >4000 | >4000 | >4000 | >4000 | >1 | >1 | –
14 | CCCSS(=O)(=O)c1ccc(C)cc1 [S-propyl-4-methylbenzene thiosulfonate] | – | – | – | – | – | – | 60 | 130 | 60 | 60 | 0.5 | >1 | –
15 | Bis(4-Chlorophenyl) thiosulfonate [Bis (4-chlorophenyl) thiosulfonate] | – | – | – | – | – | – | 30 | 60 | 250 | 2000 | >1 | >1 | –
16 | Bis(4-Fluorophenyl) thiosulfonate [Bis (4-fluorophenyl) thiosulfonate] | – | – | – | – | – | – | 250 | 2000 | 2000 | 2000 | >1 | >1 | –
17 | Bis(4-chlorophenyl) thiosulfinate [Bis (4-chlorophenyl) thiosulfinate] | – | – | – | – | – | – | 20 | 20 | 20 | 20 | >1 | >1 | –
18 | Bis(4-fluorophenyl) thiosulfinate [Bis (4-fluorophenyl) thiosulfinate] | – | – | – | – | – | – | 125 | 250 | 1000 | 4000 | >1 | >1 | –
19 | Di-isopropyl thiosulfonate | – | – | – | – | – | – | 2000 | 2000 | 2000 | 2000 | >1 | >1 | –
